Laboratory results: patent publication US11845803B2, “Combination therapies for treatment of BCMA-related cancers and autoimmune disorders” (Fred Hutchinson Cancer Center, priority 2017, dated 2023)

System: primary human myeloma tumor cells
Assay: BCMA-specific T-ChARM T cells co-cultured with primary myeloma cells in the presence of GSI (cytokines, proliferation)
Format: cell-based
Protocol: (A) IL-2 production by BCMA CAR-T cells (BCMA-specific T-ChARM C11 3ST-CD28 and BCMA-specific T-ChARM C11 3ST-41BB) or control CD19sh CAR (short spacer)-T cells co-cultured with primary human myeloma tumor cells for 24 hours alone or with various concentrations of GSI RO429097 (0.003 μM to 3.0 μM).
(B) IFN-γ production by BMCA T-ChARM T cells co-cultured with myeloma cells at various concentrations of RO429097.
(O) Intracellular staining showing IFN-γ production (y-axis) and CD8 expression (x-axis) by T-ChARM T cells of the present disclosure cultured with primary MM cells from 2 patients in the absence (0 μM; left panels) or presence (1 μM; right panels) of GSI RO4929097.
(P) IFN-γ production (geometric mean fluorescence intensity (gMFI)) by T-ChARM T cells of the present disclosure cultured with primary MM cells in the presence of the indicated concentration of RO4929097 (x-axis).
(Q) IFN-γ production (normalized MFI; y-axis) by T-ChARM T cells of the present disclosure cultured with primary MM cells in the presence of the indicated concentration of RO4929097 (x-axis).
(R) Proliferation of T-ChARM T cells of the present disclosure in the presence of primary MM cells that were untreated (grey shading) or treated with 1.0 μM GSI RO4929097.
To examine the effect of a GSI on CAR T cell activity against BCMA^+ multiple myeloma, IL-2 production by BCMA CAR-T cells (BCMA-specific T-ChARM C11 3ST-CD28 and BCMA-specific T-ChARM C11 3ST-41BB) or control CD19sh CAR (short spacer)-T cells was measured after co-culture with primary human myeloma tumor cells for 24 hours in media containing at various concentrations of GSI RO429097 (0.003 μM to 3.0 μM) (FIG. 4A).
Next, the effect of GSI on T cell functionality of T cells containing a BCMA-specific T-ChARM was examined.

## CC(C)(C(=O)NCC(F)(F)C(F)(F)F)C(=O)N[C@@H]1C(=O)Nc2ccccc2-c2ccccc21 [RO4929097]
24 hours co-culture, GSI 0.003 μM to 3.0 μM
  IL-2 production by BCMA T-ChARM T cells: dose dependent increase
3 days co-culture with primary myeloma cells
  proliferation of CFSE-labeled BCMA-specific T-ChARM T cells: increased in a dose dependent manner
GSI treatment of primary myeloma tumor samples
  IFN-γ production and CD8 expression by co-cultured T-ChARM T cells: greatly improved
co-culture with myeloma cells, various GSI concentrations
  IFNγ production by BCMA T-ChARM T cells: increased
Primary MM cells treated with 1.0 μM GSI vs untreated
  proliferation of T-ChARM T cells: increased proliferation
Primary myeloma tumor samples
  GSI concentration at which effects on T-ChARM T cell IFN-γ were seen: ≥ 0.1 µM
